Reference: the NIST ThermoML archive (doi:10.1016/j.fluid.2010.09.021)
± gives the expanded uncertainty stated by the source.

Test: excess molar enthalpy (molar enthalpy of mixing); xn = mol fraction of the nth substance listed
Details: Liquid, Flow calorimetry

CCCCCC[N+]1(C)CCCC1.O=S(=O)([N-]S(=O)(=O)C(F)(F)F)C(F)(F)F + Cc1ccccc1
excess molar enthalpy (413.15 K, 2377 kPa, x2 = 0.0759): -0.0366 ± 0.00153 kcal/mol
excess molar enthalpy (413.15 K, 2377 kPa, x2 = 0.1443): -0.0704 ± 0.00287 kcal/mol
excess molar enthalpy (413.15 K, 2377 kPa, x2 = 0.2063): -0.0967 ± 0.00406 kcal/mol
excess molar enthalpy (413.15 K, 2377 kPa, x2 = 0.2626): -0.121 ± 0.00502 kcal/mol
excess molar enthalpy (413.15 K, 2377 kPa, x2 = 0.314): -0.145 ± 0.00598 kcal/mol
excess molar enthalpy (413.15 K, 2377 kPa, x2 = 0.3612): -0.165 ± 0.00669 kcal/mol
excess molar enthalpy (413.15 K, 2377 kPa, x2 = 0.4448): -0.189 ± 0.00765 kcal/mol
excess molar enthalpy (413.15 K, 2377 kPa, x2 = 0.5165): -0.199 ± 0.00813 kcal/mol
excess molar enthalpy (413.15 K, 2377 kPa, x2 = 0.5787): -0.203 ± 0.00837 kcal/mol
excess molar enthalpy (413.15 K, 2377 kPa, x2 = 0.6812): -0.188 ± 0.00765 kcal/mol
excess molar enthalpy (413.15 K, 2377 kPa, x2 = 0.7622): -0.151 ± 0.00621 kcal/mol
excess molar enthalpy (413.15 K, 2377 kPa, x2 = 0.8278): -0.112 ± 0.00454 kcal/mol
excess molar enthalpy (413.15 K, 2377 kPa, x2 = 0.9058): -0.0643 ± 0.00263 kcal/mol
excess molar enthalpy (413.15 K, 2377 kPa, x2 = 0.9665): -0.0259 ± 0.0011 kcal/mol

CCCCCC[N+]1(C)CCCC1.O=S(=O)([N-]S(=O)(=O)C(F)(F)F)C(F)(F)F + c1ccccc1
excess molar enthalpy (393.15 K, 2342 kPa, x2 = 0.0899): -0.0422 ± 0.00174 kcal/mol
excess molar enthalpy (393.15 K, 2342 kPa, x2 = 0.1686): -0.0867 ± 0.00359 kcal/mol
excess molar enthalpy (393.15 K, 2342 kPa, x2 = 0.238): -0.121 ± 0.00502 kcal/mol
excess molar enthalpy (393.15 K, 2342 kPa, x2 = 0.2998): -0.145 ± 0.00598 kcal/mol
excess molar enthalpy (393.15 K, 2342 kPa, x2 = 0.355): -0.177 ± 0.00717 kcal/mol
excess molar enthalpy (393.15 K, 2342 kPa, x2 = 0.4047): -0.199 ± 0.00813 kcal/mol
excess molar enthalpy (393.15 K, 2342 kPa, x2 = 0.4906): -0.227 ± 0.00932 kcal/mol
excess molar enthalpy (393.15 K, 2342 kPa, x2 = 0.5622): -0.252 ± 0.0103 kcal/mol
excess molar enthalpy (393.15 K, 2342 kPa, x2 = 0.6228): -0.263 ± 0.0108 kcal/mol
excess molar enthalpy (393.15 K, 2342 kPa, x2 = 0.7198): -0.236 ± 0.00956 kcal/mol
excess molar enthalpy (393.15 K, 2342 kPa, x2 = 0.7939): -0.19 ± 0.00789 kcal/mol
excess molar enthalpy (393.15 K, 2342 kPa, x2 = 0.8525): -0.141 ± 0.00574 kcal/mol
excess molar enthalpy (393.15 K, 2342 kPa, x2 = 0.9204): -0.0734 ± 0.00311 kcal/mol
excess molar enthalpy (393.15 K, 2342 kPa, x2 = 0.972): -0.0246 ± 0.00105 kcal/mol

CCCC[N+]1(C)CCCC1.O=S(=O)([N-]S(=O)(=O)C(F)(F)F)C(F)(F)F + c1ccccc1
excess molar enthalpy (363.15 K, 2239 kPa, x2 = 0.0815): -0.0309 ± 0.00129 kcal/mol
excess molar enthalpy (363.15 K, 2239 kPa, x2 = 0.1541): -0.0622 ± 0.00263 kcal/mol
excess molar enthalpy (363.15 K, 2239 kPa, x2 = 0.2191): -0.0851 ± 0.00359 kcal/mol
excess molar enthalpy (363.15 K, 2239 kPa, x2 = 0.2777): -0.11 ± 0.00454 kcal/mol
excess molar enthalpy (363.15 K, 2239 kPa, x2 = 0.3308): -0.136 ± 0.0055 kcal/mol
excess molar enthalpy (363.15 K, 2239 kPa, x2 = 0.3792): -0.154 ± 0.00621 kcal/mol
excess molar enthalpy (363.15 K, 2239 kPa, x2 = 0.4639): -0.181 ± 0.00741 kcal/mol
excess molar enthalpy (363.15 K, 2239 kPa, x2 = 0.5357): -0.203 ± 0.00837 kcal/mol
excess molar enthalpy (363.15 K, 2239 kPa, x2 = 0.7758): -0.175 ± 0.00717 kcal/mol
excess molar enthalpy (363.15 K, 2239 kPa, x2 = 0.8385): -0.125 ± 0.00502 kcal/mol
excess molar enthalpy (363.15 K, 2239 kPa, x2 = 0.9121): -0.07 ± 0.00287 kcal/mol
excess molar enthalpy (363.15 K, 2239 kPa, x2 = 0.9689): -0.0232 ± 0.00098 kcal/mol

CCCC[N+]1(C)CCCC1.O=S(=O)([N-]S(=O)(=O)C(F)(F)F)C(F)(F)F + Cc1ccccc1
excess molar enthalpy (413.15 K, 2342 kPa, x2 = 0.0687): -0.029 ± 0.00122 kcal/mol
excess molar enthalpy (413.15 K, 2342 kPa, x2 = 0.1315): -0.0605 ± 0.00239 kcal/mol
excess molar enthalpy (413.15 K, 2342 kPa, x2 = 0.1892): -0.0872 ± 0.00359 kcal/mol
excess molar enthalpy (413.15 K, 2342 kPa, x2 = 0.2423): -0.103 ± 0.0043 kcal/mol
excess molar enthalpy (413.15 K, 2342 kPa, x2 = 0.2914): -0.119 ± 0.00478 kcal/mol
excess molar enthalpy (413.15 K, 2342 kPa, x2 = 0.3368): -0.136 ± 0.0055 kcal/mol
excess molar enthalpy (413.15 K, 2342 kPa, x2 = 0.4184): -0.16 ± 0.00645 kcal/mol
excess molar enthalpy (413.15 K, 2342 kPa, x2 = 0.4896): -0.168 ± 0.00693 kcal/mol
excess molar enthalpy (413.15 K, 2342 kPa, x2 = 0.5523): -0.166 ± 0.00669 kcal/mol
excess molar enthalpy (413.15 K, 2342 kPa, x2 = 0.6574): -0.153 ± 0.00621 kcal/mol
excess molar enthalpy (413.15 K, 2342 kPa, x2 = 0.7421): -0.123 ± 0.00502 kcal/mol
excess molar enthalpy (413.15 K, 2342 kPa, x2 = 0.8119): -0.094 ± 0.00382 kcal/mol
excess molar enthalpy (413.15 K, 2342 kPa, x2 = 0.8962): -0.0543 ± 0.00225 kcal/mol
excess molar enthalpy (413.15 K, 2342 kPa, x2 = 0.9628): -0.0181 ± 0.000789 kcal/mol
